Assay results as given in the NIST ThermoML archive (doi:10.1021/je049818g).
Numbers after ± are expanded uncertainties.

Details: Liquid, Hot wire method

CCCCOCCO [2-butoxyethan-1-ol]
thermal conductivity (283.96 K): 0.1381 ± 0.0056 W/m/K | thermal conductivity (293.67 K): 0.1365 ± 0.0055 W/m/K | thermal conductivity (303.56 K): 0.135 ± 0.0054 W/m/K | thermal conductivity (314.25 K): 0.1333 ± 0.0054 W/m/K | thermal conductivity (323.88 K): 0.1319 ± 0.0053 W/m/K | thermal conductivity (333.98 K): 0.1305 ± 0.0053 W/m/K | thermal conductivity (344.05 K): 0.129 ± 0.0052 W/m/K | thermal conductivity (354.63 K): 0.1272 ± 0.0051 W/m/K | thermal conductivity (363.59 K): 0.1258 ± 0.0051 W/m/K | thermal conductivity (373.84 K): 0.1241 ± 0.005 W/m/K

COC [dimethyl ether]
thermal conductivity (229.67 K): 0.1832 ± 0.0074 W/m/K | thermal conductivity (244.98 K): 0.1762 ± 0.0071 W/m/K | thermal conductivity (254.6 K): 0.1701 ± 0.0068 W/m/K | thermal conductivity (271.55 K): 0.1605 ± 0.0064 W/m/K | thermal conductivity (281.76 K): 0.1537 ± 0.0062 W/m/K | thermal conductivity (291.33 K): 0.1485 ± 0.006 W/m/K

Cc1ccccc1 [toluene]
thermal conductivity (234.6 K): 0.1477 ± 0.0059 W/m/K | thermal conductivity (254.58 K): 0.1434 ± 0.0058 W/m/K | thermal conductivity (273.17 K): 0.1374 ± 0.0055 W/m/K | thermal conductivity (293.23 K): 0.1334 ± 0.0054 W/m/K | thermal conductivity (314.68 K): 0.1264 ± 0.0051 W/m/K | thermal conductivity (334.99 K): 0.1211 ± 0.0049 W/m/K | thermal conductivity (354.89 K): 0.1136 ± 0.0046 W/m/K | thermal conductivity (373.92 K): 0.1105 ± 0.0044 W/m/K

CCC(C)=O [butanone]
thermal conductivity (284.48 K): 0.1501 ± 0.006 W/m/K | thermal conductivity (294.42 K): 0.1481 ± 0.006 W/m/K | thermal conductivity (305.02 K): 0.1459 ± 0.0059 W/m/K | thermal conductivity (314.26 K): 0.1435 ± 0.0058 W/m/K | thermal conductivity (323.96 K): 0.1414 ± 0.0057 W/m/K | thermal conductivity (334.71 K): 0.139 ± 0.0056 W/m/K | thermal conductivity (344.54 K): 0.1362 ± 0.0055 W/m/K | thermal conductivity (354.33 K): 0.1334 ± 0.0054 W/m/K | thermal conductivity (364.46 K): 0.1308 ± 0.0053 W/m/K | thermal conductivity (374.56 K): 0.1284 ± 0.0052 W/m/K
